Data set [1] can be described thus: Proliferation test (MTT reduction) in L1210 tumoral cells. As to conditions: 72 hours, 37° C. It is filed as cell-based, [569, 570, 571, 572, 573, 575].
For data set [2] the following is noted: beta-glucuronidase.
Data set [3] is described as follows: cleavability of glycosylated prodrugs by recombinant β-glucuronidase (reversed-phase HPLC). The following applies: for half-life: beta-glucuronidase; for t1/2 arm: time for conversion of 50% of the anthracycline/arm compound to active anthracycline, 37° C., 1 U/ml, pH 7.2 to 6.8.
Data set [4] can be described thus: hydrolysis of 48b by α-galactosidase (HPLC). As to conditions: placental alpha-galactosidase; α-galactosidase from human placenta, 0.075M N-acetylgalactosamine, 37° C., pH 5 (0.02M phosphate buffer); read-out: half-life of hydrolysis of the glycoside (converted). The format is biochemical, [550, 552, 554].
A further data set is described as follows: stability in plasma. The format is in vitro ADME.
The nature of data set [5]: incubation of 60 with α-galactosidase from unroasted coffee beans (HPLC). It is filed as biochemical, [550, 560, 561]. As to conditions: pH 6.8 (0.02M phosphate buffer), 37° C., 0.04 U/ml enzyme, 60 at 660 μg/ml.
Data set [6] can be described thus: hydrolysis of acetates in vivo. As to conditions: 6, 13 and 48a to 7, 14 and 48b respectively.
Data set [7] in a line: cleavability of glycosylated prodrugs by α-galactosidase from coffee beans (reversed-phase HPLC). The format is biochemical, [595, 596, 597]. The following applies: 37° C., 1 U/ml, pH 7.2 to 6.8.

In brackets after ≈: the same amount, converted by molar mass.

We go through 16 compounds from patent US5561119A, “Glycosylated prodrugs, their method of preparation and their uses” (Laboratoires Hoechst, priority 1991, dated 1996).

In data set [1], `COc1cccc2c1C(=O)c1c(O)c3c(c(O)c1C2=O)C[C@@](O)(C(C)=O)C[C@@H]3O[C@H]1C[C@H](NC(=O)OCc2ccc(O[C@@H]3O[C@H](C(=O)O)[C@@H](O)[C@H](O)[C@H]3O)cc2)[C@H](O)[C@H](C)O1` [derivative 22, N-(4-Hydroxybenzyloxycarbonyl)daunorubicin β-D-glucuronide] yielded an IC50 greater than 10 µg/mL.
As for `COc1cccc2c1C(=O)c1c(O)c3c(c(O)c1C2=O)CC(O)(C(=O)CO)CC3OC1CC(NC(=O)OCc2ccc(OC3OC(C(=O)O)C(O)C(O)C3O)c([N+](=O)[O-])c2)C(O)C(C)O1` [derivative 70c, N-[4-hydroxy-3-nitro-benzyloxy-carbonyl) doxorubicin β-D-glucuronide], the “t1/2 cleavage of the glycoside” value in data set [2] is 0,92 h.
Regarding `COc1cccc2c1C(=O)c1c(O)c3c(c(O)c1C2=O)C[C@@](O)(C(C)=O)C[C@@H]3O[C@H]1C[C@H](NC(=O)OCc2cc(Cl)ccc2O[C@@H]2O[C@H](C(=O)O)[C@@H](O)[C@H](O)[C@H]2O)[C@H](O)[C@H](C)O1` [derivative 82c, N-[2-((β-D-glucopyranosyl)uronic acid)-5-chlorobenzyloxycarbonyl]daunorubicin], in data set [3], the half-life was 244 min and the t1/2 arm is 12,00 h.
`COc1cccc2c1C(=O)c1c(O)c3c(c(O)c1C2=O)C[C@@](O)(C(C)=O)C[C@@H]3O[C@H]1C[C@H](NC(=O)OCc2cc([N+](=O)[O-])ccc2O[C@H]2O[C@H](CO)[C@H](O)[C@H](O)[C@H]2O)[C@H](O)[C@H](C)O1` [derivative 48b, N-[2-(α-D-Galactopyranosyl)-5-nitrobenzyloxycarbonyl]daunorubicin]: the IC50 in data set [1] was greater than 1 µg/mL. Moreover, the half-life in data set [4] is 60 min. Moreover, the stability in plasma result in the data set “stability in plasma” is “stable in plasma”.
The compound `COc1cccc2c1C(=O)c1c(O)c3c(c(O)c1C2=O)C[C@@](O)(C(C)=O)C[C@@H]3O[C@H]1C[C@H](NC(=O)OCc2ccccc2O[C@H]2O[C@H](CO)[C@H](O)[C@H](O)[C@H]2O)[C@H](O)[C@H](C)O1` [derivative 14, N-[2-(α-D-Galactopyranosyl)benzyloxycarbonyl]daunorubicin] registered an IC50 in data set [1] greater than 1 µg/mL.
For `COc1cccc2c1C(=O)c1c(O)c3c(c(O)c1C2=O)C[C@@](O)(C(C)=O)C[C@@H]3O[C@H]1C[C@H](NC(=O)OCc2ccc(O)c(Cl)c2)[C@H](O)[C@H](C)O1` [deglycosidated derivative 60], the “detection of the deglycosidated derivative” value in data set [5] is “not detected because of its high rate of disappearance”.
Regarding `COc1cccc2c1C(=O)c1c(O)c3c(c(O)c1C2=O)C[C@@](O)(C(C)=O)C[C@@H]3O[C@H]1C[C@H](NC(=O)OCc2cc([N+](=O)[O-])ccc2O[C@@H]2O[C@H](C(=O)O)[C@@H](O)[C@H](O)[C@H]2O)[C@H](O)[C@H](C)O1` [derivative 54c, N-[2-((β-D-Glucopyranosyl)uronic acid)-5-nitrobenzyloxycarbonyl]daunorubicin], in data set [3], the half-life is 41.4 min and the t1/2 arm is given as 5,30 h.
The like results for `COc1cccc2c1C(=O)c1c(O)c3c(c(O)c1C2=O)C[C@@](O)(C(C)=O)C[C@@H]3O[C@H]1C[C@H](NC(=O)OCc2ccc(O[C@@H]3O[C@H](C(=O)O)[C@@H](O)[C@H](O)[C@H]3O)c([N+](=O)[O-])c2)[C@H](O)[C@H](C)O1` [derivative 64c, N-(4-Hydroxy-3-nitrobenzyloxycarbonyl)daunorubicin β-D-glucuronide] were, in that order, 25.2 min and < 0,08 h.
On to `COc1cccc2c1C(=O)c1c(O)c3c(c(O)c1C2=O)C[C@@](O)(C(C)=O)C[C@@H]3O[C@H]1C[C@H](NC(=O)OCc2cc([N+](=O)[O-])ccc2O[C@H]2O[C@H](COC(C)=O)[C@H](OC(C)=O)[C@H](OC(C)=O)[C@H]2OC(C)=O)[C@H](O)[C@H](C)O1` [derivative 48a, N-[2-(2,3,4,6-Tetra-O-acetyl-α-D-galactopyranosyl)-5-nitrobenzyloxycarbonyl]daunorubicin], for which, in data set [1], the IC50 is greater than 10 µg/mL. The “hydrolysis in vivo to the deacetylated prodrug” value (“hydrolysis in vivo” below) in data set [6] is “hydrolyzed in vivo”.
In data set [1], `COc1cccc2c1C(=O)c1c(O)c3c(c(O)c1C2=O)C[C@@](O)(C(C)=O)C[C@@H]3O[C@H]1C[C@H](NC(=O)OCc2ccccc2O[C@@H]2O[C@H](C(=O)O)[C@@H](O)[C@H](O)[C@H]2O)[C@H](O)[C@H](C)O1` [derivative 27c, N-[2-((β-D-Glucopyranosyl)uronic acid)benzyloxycarbonyl]daunorubicin] registered an IC50 greater than 1 µg/mL.
Same read-out and setting: under `COc1cccc2c1C(=O)c1c(O)c3c(c(O)c1C2=O)C[C@@](O)(C(=O)CO)C[C@@H]3O[C@H]1C[C@H](N)[C@H](O)[C@H](C)O1` [doxorubicin, reference compound] stands 0.02 µg/mL (≈ 0.0368 µM); under `COc1cccc2c1C(=O)c1c(O)c3c(c(O)c1C2=O)C[C@@](O)(C(C)=O)C[C@@H]3O[C@H]1C[C@H](NC(=O)OCc2ccc(O[C@H]3O[C@H](CO)[C@H](O)[C@H](O)[C@H]3O)cc2)[C@H](O)[C@H](C)O1` [derivative 7, N-[4-(α-D-Galactopyranosyl)benzyloxycarbonyl]daunorubicin], greater than 1 µg/mL.
For the compound `COc1cc(O[C@@H]2O[C@H](C(=O)O)[C@@H](O)[C@H](O)[C@H]2O)c(COC(=O)N[C@H]2C[C@H](O[C@H]3C[C@](O)(C(C)=O)Cc4c(O)c5c(c(O)c43)C(=O)c3c(OC)cccc3C5=O)O[C@@H](C)[C@H]2O)cc1[N+](=O)[O-]` [derivative 68c, N-[4-Methoxy-5-nitro-2-((β-D-glucopyranosyl)uronic acid)benzyloxycarbonyl]daunorubicin], in data set [3], the half-life is 113 min and the t1/2 arm is 0,75 h.
`COc1cccc2c1C(=O)c1c(O)c3c(c(O)c1C2=O)C[C@@](O)(C(C)=O)C[C@@H]3O[C@H]1C[C@H](NC(=O)OCc2ccc(O[C@H]3O[C@H](CO)[C@H](O)[C@H](O)[C@H]3O)c(Cl)c2)[C@H](O)[C@H](C)O1` [derivative 60, N-[3-Chloro-4-(α-D-galactopyranosyl)benzyloxycarbonyl]daunorubicin]: the half-life in data set [7] (alpha-galactosidase, time for cleavage of 50% of the glycoside, read-out: t1/2 cleavage of the glycoside (converted)) is 1.2 min. Also, the t1/2 arm in data set [7] (time for conversion of 50% of the anthracycline/arm compound to active anthracycline) is on record as < 0,08 h.
Consider `COc1cccc2c1C(=O)c1c(O)c3c(c(O)c1C2=O)C[C@@](O)(C(C)=O)C[C@@H]3O[C@H]1C[C@H](NC(=O)OCc2ccccc2O[C@H]2O[C@H](COC(C)=O)[C@H](OC(C)=O)[C@H](OC(C)=O)[C@H]2OC(C)=O)[C@H](O)[C@H](C)O1` [derivative 13, N-[2-(2,3,4,6-Tetra-O-acetyl-α-D-galactopyranosyl)benzyloxycarbonyl]daunorubicin], for which the IC50 in data set [1] was greater than 1 µg/mL. Also, the “hydrolysis in vivo” value in data set [6] is “hydrolyzed in vivo”.
On to `COc1cccc2c1C(=O)c1c(O)c3c(c(O)c1C2=O)C[C@@](O)(C(C)=O)C[C@@H]3O[C@H]1C[C@H](NC(=O)OCc2ccc(O[C@H]3O[C@H](COC(C)=O)[C@H](OC(C)=O)[C@H](OC(C)=O)[C@H]3OC(C)=O)cc2)[C@H](O)[C@H](C)O1` [derivative 6, N-[4-(2,3,4,6-Tetra-O-acetyl-α-D-galactopyranosyl)benzyloxycarbonyl]daunorubicin], for which, in data set [1], the 50% inhibitory concentration (IC50) was greater than 1 µg/mL. Besides, the “hydrolysis in vivo” value in data set [6] was “hydrolyzed in vivo”.
